What was measured:
[1] = target: SARS-CoV-2 Main Protease (SARS-CoV-2) (UniProt P0DTD1)
[2] = target: SARS-CoV-2 Main Protease (SARS-CoV-2) (UniProt P0DTD1); remark: listed apart in the source

Question: For `C=CC(=O)N(c1ccc(C(C)(C)CC)cc1)C(C(=O)Nc1ccccc1Br)c1cccnc1` (stereo not given), which inhibition ([1]; 20.0 µM) is on record?
Answer: Its inhibition is 0%.

Question: And the inhibition ([1]; 50.0 µM)?
Answer: Its inhibition is 8.03%.

Question: And the inhibition ([2]; 50.0 µM)?
Answer: Its inhibition is -11.5%.

Question: What about the relative solubility at 20 uM of the same molecule?
Answer: Its relative solubility at 20 uM is 1.

Question: And the relative solubility at 100 uM?
Answer: Its relative solubility at 100 uM is 1.

Question: What does the source list for `CC(C)CCNC(=O)C(CC(C)C)NC(=O)C1OC1C(=O)O` (stereo not given)?
Answer: inhibition ([1]; 50.0 µM): 0%; inhibition ([2]; 20.0 µM): 0.736%; inhibition ([2]; 50.0 µM): -2.95%; relative solubility at 20 uM: 1; relative solubility at 100 uM: 1

Question: With `O=C(Nc1ccccc1OC1CCN(Cc2ccccc2)CC1)C1CCN(C(=O)CCl)CC1` as the molecule, how does the inhibition ([1]; 50.0 µM) read?
Answer: Its inhibition is -1.57%.

Question: And the inhibition ([2]; 20.0 µM)?
Answer: Its inhibition is 6.3%.

Question: What about the inhibition ([2]; 50.0 µM) of the same molecule?
Answer: Its inhibition is 16.5%.

Question: What about the relative solubility at 20 uM of the same molecule?
Answer: The relative solubility at 20 uM was 0.94.

Question: What about the relative solubility at 100 uM of the same molecule?
Answer: Its relative solubility at 100 uM is 0.95.

Question: With `C=C(CN(C)C)C(=O)N1Cc2ccccc2C(c2ccccc2)C1` (stereo not given) as the molecule, how does the inhibition ([1]; 20.0 µM) read?
Answer: The inhibition was 0%.

Question: And the inhibition ([2]; 20.0 µM)?
Answer: Its inhibition is 0.735%.

Question: And the inhibition ([2]; 50.0 µM)?
Answer: The inhibition was 10.3%.

Question: What about the relative solubility at 20 uM of the same molecule?
Answer: Its relative solubility at 20 uM is 1.

Question: And the relative solubility at 100 uM?
Answer: Its relative solubility at 100 uM is 0.97.

Question: Which results are given for `CN(C(=O)C1CCOc2ccc(Cl)cc21)c1ccc(Cl)cn1` (stereo not given)?
Answer: inhibition ([1]; 50.0 µM): 0%; inhibition ([2]; 20.0 µM): 0.542%; inhibition ([2]; 50.0 µM): 9.88%; relative solubility at 20 uM: 0.99; relative solubility at 100 uM: 0.98

Question: What does the source list for `O=C(Nc1ccc(Oc2ncccn2)cc1)C(=O)N1CCN(Cc2cccs2)CC1`?
Answer: inhibition ([1]; 20.0 µM): 0%; inhibition ([2]; 20.0 µM): -21%; inhibition ([2]; 50.0 µM): -13.8%; relative solubility at 20 uM: 1; relative solubility at 100 uM: 1

Question: Which inhibition ([1]; 20.0 µM) does the source give for `C=CC(=O)N(c1ccc(C(C)(C)C)cc1)C(C(=O)Nc1ccc2c(c1)OCCO2)c1cccnc1` (stereo not given) here?
Answer: Its inhibition is 7.68%.

Question: And the inhibition ([1]; 50.0 µM)?
Answer: The inhibition was 30.8%.

Question: And the inhibition ([2]; 20.0 µM)?
Answer: Its inhibition is 2.83%.

Question: What about the inhibition ([2]; 50.0 µM) of the same molecule?
Answer: The inhibition was 18.1%.

Question: And the relative solubility at 20 uM?
Answer: The relative solubility at 20 uM was 0.98.

Question: And the relative solubility at 100 uM?
Answer: Its relative solubility at 100 uM is 0.75.

Question: What does the source list for `C=CC(=O)N(c1ccc(C(C)(C)C)cc1)C(C(=O)NCc1cccnc1)c1cccnc1` (stereo not given)?
Answer: inhibition ([1]; 20.0 µM): 18.2%; inhibition ([1]; 50.0 µM): 61.3%; inhibition ([2]; 20.0 µM): 41.2%; inhibition ([2]; 50.0 µM): 59.3%; relative solubility at 20 uM: 1; relative solubility at 100 uM: 0.96

Question: What does the source list for `O=C1N(Cc2cccc(Cl)c2)CCN1c1nccc2n[nH]cc12`?
Answer: IC50 [1]: 2.91 µM; inhibition ([1]; 50.0 µM): 88.8%; inhibition ([2]; 20.0 µM): 72.1%; inhibition ([2]; 50.0 µM): 84.1%; relative solubility at 20 uM: 0.92; relative solubility at 100 uM: 0.93

Question: Which inhibition ([1]; 20.0 µM) does the source give for `C=CC(=O)N(c1ccc(C(C)(C)C)cc1)C(C(=O)NC(C)(C)C)c1cncc(Cl)c1` (stereo not given) here?
Answer: Its inhibition is 0%.

Question: And the inhibition ([1]; 50.0 µM)?
Answer: Its inhibition is 13.5%.

Question: What about the inhibition ([2]; 20.0 µM) of the same molecule?
Answer: Its inhibition is 34.6%.

Question: And the inhibition ([2]; 50.0 µM)?
Answer: The inhibition was 19.6%.

Question: What about the relative solubility at 20 uM of the same molecule?
Answer: Its relative solubility at 20 uM is 0.99.

Question: What about the relative solubility at 100 uM of the same molecule?
Answer: The relative solubility at 100 uM was 0.86.

Question: Which inhibition ([1]; 20.0 µM) does the source give for `C=CC(=O)N(c1ccc(N(C)C)c(C)c1)C(C(=O)Nc1ccccc1Br)c1cccnc1` (stereo not given) here?
Answer: The inhibition was 0%.

Question: And the inhibition ([2]; 20.0 µM)?
Answer: Its inhibition is 2.84%.

Question: And the inhibition ([2]; 50.0 µM)?
Answer: The inhibition was 8.13%.

Question: And the relative solubility at 20 uM?
Answer: Its relative solubility at 20 uM is 0.86.

Question: And the relative solubility at 100 uM?
Answer: The relative solubility at 100 uM was 0.79.

Question: For `C=CC(=O)Nc1cc(C(=O)NC[C@H](Cc2ccccc2)c2ccccn2)ccc1O` (stereo in doubt), which inhibition ([1]; 20.0 µM) is on record?
Answer: Its inhibition is 0%.

Question: What about the inhibition ([2]; 20.0 µM) of the same molecule?
Answer: The inhibition was 0.684%.

Question: And the inhibition ([2]; 50.0 µM)?
Answer: Its inhibition is 9.48%.

Question: What about the relative solubility at 20 uM of the same molecule?
Answer: Its relative solubility at 20 uM is 0.83.

Question: What about the relative solubility at 100 uM of the same molecule?
Answer: The relative solubility at 100 uM was 0.82.

Question: With `C=CC(=O)N(c1ccc(C(C)(C)C)cc1)C(C(=O)NC1CCCCC1)c1cccnc1` (stereo not given) as the molecule, how does the inhibition ([1]; 20.0 µM) read?
Answer: The inhibition was 0%.

Question: And the inhibition ([1]; 50.0 µM)?
Answer: The inhibition was 18.6%.

Question: What about the inhibition ([2]; 20.0 µM) of the same molecule?
Answer: The inhibition was 13.3%.

Question: And the inhibition ([2]; 50.0 µM)?
Answer: The inhibition was 17.8%.

Question: And the relative solubility at 20 uM?
Answer: The relative solubility at 20 uM was 0.99.

Question: What about the relative solubility at 100 uM of the same molecule?
Answer: The relative solubility at 100 uM was 1.

Question: Which inhibition ([1]; 20.0 µM) does the source give for `C=CC(=O)N1CCCC(c2nc3ccccc3s2)C1` (stereo not given) here?
Answer: Its inhibition is 0%.

Question: And the inhibition ([1]; 50.0 µM)?
Answer: The inhibition was 0%.

Question: And the inhibition ([2]; 50.0 µM)?
Answer: The inhibition was 14.5%.

Question: What about the relative solubility at 20 uM of the same molecule?
Answer: Its relative solubility at 20 uM is 0.99.

Question: And the relative solubility at 100 uM?
Answer: Its relative solubility at 100 uM is 0.99.

Question: For `CCCN(C(=O)Cc1cccc(Cl)c1)c1cccnc1`, which inhibition ([1]; 50.0 µM) is on record?
Answer: The inhibition was 36.2%.

Question: And the inhibition ([2]; 20.0 µM)?
Answer: Its inhibition is 2.28%.

Question: And the inhibition ([2]; 50.0 µM)?
Answer: The inhibition was 3.25%.

Question: And the relative solubility at 20 uM?
Answer: Its relative solubility at 20 uM is 1.

Question: And the relative solubility at 100 uM?
Answer: The relative solubility at 100 uM was 1.

Question: With `O=C(Cc1c[nH]c2ncccc12)NCc1ccc(Cl)cn1` as the molecule, how does the inhibition ([1]; 20.0 µM) read?
Answer: Its inhibition is 0%.

Question: And the inhibition ([2]; 20.0 µM)?
Answer: The inhibition was 1.55%.

Question: And the inhibition ([2]; 50.0 µM)?
Answer: Its inhibition is 4.16%.

Question: And the relative solubility at 20 uM?
Answer: The relative solubility at 20 uM was 1.

Question: And the relative solubility at 100 uM?
Answer: Its relative solubility at 100 uM is 1.

Question: For `C[C@H](NC(=O)[C@@H](C)c1ccc(F)c(F)c1)c1cccc(F)c1` (stereo in doubt), which inhibition ([1]; 20.0 µM) is on record?
Answer: Its inhibition is 0%.

Question: And the inhibition ([1]; 50.0 µM)?
Answer: The inhibition was 0%.

Question: And the inhibition ([2]; 50.0 µM)?
Answer: Its inhibition is -31.4%.

Question: And the relative solubility at 20 uM?
Answer: The relative solubility at 20 uM was 1.

Question: What about the relative solubility at 100 uM of the same molecule?
Answer: Its relative solubility at 100 uM is 0.79.

Question: For `Cc1ccncc1NC(=O)Cc1cc(Cl)c2c(c1)OCCO2`, which inhibition ([1]; 50.0 µM) is on record?
Answer: The inhibition was 10.9%.

Question: What about the inhibition ([2]; 20.0 µM) of the same molecule?
Answer: Its inhibition is 9.83%.

Question: What about the inhibition ([2]; 50.0 µM) of the same molecule?
Answer: Its inhibition is 22.2%.

Question: And the relative solubility at 20 uM?
Answer: The relative solubility at 20 uM was 1.

Question: And the relative solubility at 100 uM?
Answer: Its relative solubility at 100 uM is 1.
